Assay results reported in patent EP4725946A1, “IRAK4 DEGRADATION AGENT AND USE THEREOF” (Guangzhou Unirise Pharmaceutical Co., Ltd., priority 2023, dated 2024).
Where two headings read alike, the source gives them in different places.

Key:
[1] = Pharmacokinetic study in mice; assay type: in vivo; conditions: male mice, plasma
Method: Six male mice weighing 20-30 g were randomly divided into two groups. One group received an intravenous (IV) administration of the test compound at a dose of 2 mg/kg, while the other group received an oral (gavage) administration at a dose of 10 mg/kg. Blood samples were collected at 0.083, 0.25, 0.5, 1, 2, 4, 6, 8, and 24 hours post-administration. Plasma samples were processed and analyzed using LC/MS/MS in MRM)mode. A validated standard curve was established for the quantitative determination of the target compound in plasma, enabling the generation of plasma drug concentration-time profiles. Pharmacokinetic parameters were calculated using WinNonlin software with a non-compartmental model.

IRAK4 protein = target: T1, IRAK4 protein (Homo sapiens, UniProt Q9NWZ3); experiment: IRAK4 Degradation Assay in THP-1 Cells (Western Blot); assay type: cell-based; set-up: endogenous in cells; host or cells: THP-1 cells
T1 sequence (Q9NWZ3 1-460): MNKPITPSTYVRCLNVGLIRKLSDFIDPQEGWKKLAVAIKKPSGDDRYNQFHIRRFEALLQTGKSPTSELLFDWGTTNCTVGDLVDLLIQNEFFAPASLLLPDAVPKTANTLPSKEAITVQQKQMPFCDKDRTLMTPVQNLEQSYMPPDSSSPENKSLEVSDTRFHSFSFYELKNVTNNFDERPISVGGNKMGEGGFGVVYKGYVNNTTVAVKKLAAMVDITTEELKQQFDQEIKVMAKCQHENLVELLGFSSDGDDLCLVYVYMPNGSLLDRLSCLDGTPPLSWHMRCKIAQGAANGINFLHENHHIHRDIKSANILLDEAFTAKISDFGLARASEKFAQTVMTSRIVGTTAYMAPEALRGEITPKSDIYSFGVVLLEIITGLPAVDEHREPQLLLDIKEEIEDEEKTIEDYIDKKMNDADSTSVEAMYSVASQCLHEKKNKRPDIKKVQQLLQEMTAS
Method: In a 6-well cell culture plate, an appropriate number of THP-1 cells were seeded. The plate was placed in a 5% CO2 incubator at 37°C for overnight culture. Then, the test compound's dimethyl sulfoxide solution was added, with the final concentration ranging from 0.0128 to 1000 nM. After continuous culture for 24 hours, the culture medium was removed, and the cells were collected in a 1.5 mL centrifuge tube. After adding lysis buffer and grinding thoroughly, the mixture was placed on ice for 30 minutes. It was then centrifuged at 15,000 xg and 4°C for 20 minutes. The supernatant was taken, and the level of IRAK4 protein was detected by Western Blot.

[2] = THP-1, THP-1 cells, 24 hours, 0.0128 to 1000 nM, IRAK4 protein level by Western Blot, read-out: Dmax%
[3] = THP-1 cells, 24 hours, 0.0128 to 1000 nM, IRAK4 protein level by Western Blot, read-out: DC50
[4] = mouse, iv, i.v. (2 mg/kg), read-out: AUC0-t
[5] = mouse, po, p.o. (10 mg/kg), read-out: AUC0-t
[6] = mouse, po, p.o. (10 mg/kg), read-out: Cmax
[7] = THP-1 cells, 24 hours, 0.0128 to 1000 nM, IRAK4 protein level by Western Blot, read-out: Dmax%

Row | SMILES | AUC(0-t) ([1]; i.v. (2 mg/kg)) [ng·h/mL] | T1/2 ([1]; i.v. (2 mg/kg)) [h] | AUC(0-t) ([1]; p.o. (10 mg/kg)) [ng·h/mL] | Cmax ([1]; p.o. (10 mg/kg)) [ng/mL] | T1/2 ([1]; p.o. (10 mg/kg)) [h] | Tmax ([1]; mouse, po, p.o. (10 mg/kg)) [h] | DC50 (IRAK4 protein; [3]) [nM] | half-life ([1]; mouse, iv, i.v. (2 mg/kg)) [h] | Dmax (IRAK4 protein; [7]) [%] | Dmax (IRAK4 protein; [2]) [%] | AUC(0-t) [1, 4] [ng·h/mL] | half-life ([1]; mouse, po, p.o. (10 mg/kg)) [h] | AUC(0-t) [1, 5] [ng·h/mL] | Cmax [1, 6] [ng/mL] | DC50 (IRAK4 protein) [nM] | Dmax (IRAK4 protein; THP-1) [%]
1 | Cn1c(=O)n(C2CCC(=O)NC2=O)c2cccc(C#CCO[C@H]3CC[C@H](CN4CCC5(CC4)Cc4cc(NC(=O)c6cnn7cccnc67)c(N6CCC(CO)CC6)cc4O5)CC3)c21 (relative stereo) [Compound 34] | 7155 | 2.69 | 14793 | 1540 | 3.70 | 2 | 2.2 | – | – | 90.6 | – | – | – | – | – | –
2 | Cn1c(=O)n(C2CCC(=O)NC2=O)c2cccc(C#CCO[C@H]3CC[C@@H](CN4CCC5(CC4)Cc4cc(NC(=O)c6cnn7cccnc67)c(N6CCC(CO)CC6)cc4O5)CC3)c21 (relative stereo) [Compound 55] | – | – | – | – | – | 1 | 3.44 | 3 | – | 89.3 | 6190 | 3.36 | 10000 | 1120 | – | –
3 | Cn1c(=O)n(C2CCC(=O)NC2=O)c2cccc(N3CCN(C(=O)CN4CCC5(CC4)Cc4cc(NC(=O)c6cnn7cccnc67)c(N6CCC(CO)CC6)cc4O5)CC3)c21 (stereo not drawn) [Compound 70] | – | – | – | – | – | 2 | – | 3.1 | – | – | 7880 | 2.28 | 6680 | 870 | 1.1 | 91.2
4 | Cn1nc(N2CCC(=O)NC2=O)c2cc(F)c(N3CCC(O)(CC(=O)N4CCC5(CC4)Cc4cc(NC(=O)c6cnn7cccnc67)c(N6CCC(CO)CC6)cc4O5)CC3)cc21 [Example 77] | – | – | – | – | – | 1 | 1.28 | 4.68 | – | 85.7 | 12900 | 3.85 | 38200 | 4830 | – | –
5 | Cn1c(=O)n(C2CCC(=O)NC2=O)c2cccc(N3CCC(CN4CCC5(CC4)Cc4cc(NC(=O)c6cnn7cccnc67)c(N6CCC(CO)CC6)cc4O5)CC3)c21 (stereo not drawn) [Example 78] | – | – | – | – | – | 1 | 0.86 | 33 | – | 94 | 32700 | 6.58 | 44900 | 2600 | – | –
6 | Cn1c(=O)n(C2CCC(=O)NC2=O)c2cccc(N3CCN(CCN4CCC5(CC4)Cc4cc(NC(=O)c6cnn7cccnc67)c(N6CCC(CO)CC6)cc4O5)CC3)c21 (stereo not drawn) [Example 95] | – | – | – | – | – | 2 | – | 2.16 | – | – | 4570 | 2.78 | 11100 | 1210 | 0.89 | 95
7 | Cn1c(=O)n(C2CCC(=O)NC2=O)c2cccc(C3CCC(CN4CCC5(CC4)Cc4cc(NC(=O)c6cnn7cccnc67)c(N6CCC(CO)CC6)cc4O5)CC3)c21 (stereo not drawn) [Example 98] | – | – | – | – | – | – | 1.1 | – | – | 88.6 | – | – | – | – | – | –

The next lines start with results.

Row | AUC(0-t) ([1]; i.v. (2 mg/kg)) [ng·h/mL] | T1/2 ([1]; i.v. (2 mg/kg)) [h] | AUC(0-t) ([1]; p.o. (10 mg/kg)) [ng·h/mL] | Cmax ([1]; p.o. (10 mg/kg)) [ng/mL] | T1/2 ([1]; p.o. (10 mg/kg)) [h] | Tmax ([1]; mouse, po, p.o. (10 mg/kg)) [h] | DC50 (IRAK4 protein; [3]) [nM] | half-life ([1]; mouse, iv, i.v. (2 mg/kg)) [h] | Dmax (IRAK4 protein; [7]) [%] | SMILES | Dmax (IRAK4 protein; [2]) [%] | AUC(0-t) [1, 4] [ng·h/mL] | half-life ([1]; mouse, po, p.o. (10 mg/kg)) [h] | AUC(0-t) [1, 5] [ng·h/mL] | Cmax [1, 6] [ng/mL] | DC50 (IRAK4 protein) [nM] | Dmax (IRAK4 protein; THP-1) [%]
8 | – | – | – | – | – | 6 | 2.22 | 22.2 | 86 | Cn1c(=O)n(C2CCC(=O)NC2=O)c2cccc(CN3CCC(CCN4CCC5(CC4)Oc4cc(NC(=O)c6cnn7cccnc67)c(N6CCC(CO)CC6)cc4O5)CC3)c21 (stereo not drawn) [Compound 15] | – | 14400 | 23.6 | 23200 | 1320 | – | –
9 | 10556 | – | 23388 | – | 4.34 | 2 | 4.69 | 3.78 | 93.4 | Cn1c(=O)n(C2CCC(=O)NC2=O)c2cccc(C#CCO[C@H]3CC[C@H](CN4CCC5(CC4)Cc4cc(NC(=O)c6coc7cccnc67)c(N6CCC(CO)CC6)cc4O5)CC3)c21 (stereo partly drawn) [Compound 35] | – | – | – | – | 2070 | – | –
10 | – | – | – | – | – | 2 | 2.27 | 2.84 | 86.5 | Cc1cnc2c(C(=O)Nc3cc4c(cc3N3CCC(CO)CC3)OC3(CCN(C[C@H]5CC[C@H](OCC#Cc6cccc7c6n(C)c(=O)n7C6CCC(=O)NC6=O)CC5)CC3)C4)cnn2c1 (stereo partly drawn) [Compound 36] | – | 8730 | 3.22 | 18000 | 1740 | – | –
11 | – | – | – | – | – | 4 | 3.32 | 3.36 | 90.5 | Cn1c(=O)n(C2CCC(=O)NC2=O)c2cccc(C#CCO[C@H]3CC[C@H](CN4CCC5(CC4)Cc4cc(NC(=O)c6cnn7cc(Cl)cnc67)c(N6CCC(CO)CC6)cc4O5)CC3)c21 (stereo partly drawn) [Compound 37] | – | 12100 | 3.94 | 29300 | 2150 | – | –
12 | 11671 | 4.07 | 26962 | 2277 | 4.27 | 4 | 2.81 | – | 88.8 | Cn1c(=O)n(C2CCC(=O)NC2=O)c2cccc(C#CCO[C@H]3CC[C@H](CN4CCC5(CC4)Cc4cc(NC(=O)c6cnn7cc(F)cnc67)c(N6CCC(CO)CC6)cc4O5)CC3)c21 (stereo partly drawn) [Compound 38] | – | – | – | – | – | – | –
13 | – | – | – | – | – | 2 | 3.86 | 2.13 | 90.5 | Cn1c(=O)n(C2CCC(=O)NC2=O)c2cccc(C#CCO[C@H]3CC[C@H](CN4CCC5(CC4)Cc4cc(NC(=O)c6cnn7cccnc67)c(N6CCC(C(C)(C)O)CC6)cc4O5)CC3)c21 (stereo partly drawn) [Compound 41] | – | 5120 | 2.62 | 21200 | 2990 | – | –
14 | 3192 | – | 7391 | 1190 | 4.40 | 2 | 1.52 | 2.02 | 87.4 | Cn1c(=O)n(C2CCC(=O)NC2=O)c2cccc(C#CCO[C@H]3CC[C@H](CN4CCC5(CC4)Cc4cc(NC(=O)c6cnc7cccnn67)c(N6CCC(CO)CC6)cc4O5)CC3)c21 (stereo partly drawn) [Compound 45] | – | – | – | – | – | – | –
15 | 14148 | 2.76 | 42143 | 3493 | 3.82 | 4 | 1.37 | – | 87 | Cn1c(=O)n(C2CCC(=O)NC2=O)c2cccc(C#CCO[C@H]3CC[C@H](CN4CCC5(CC4)Cc4cc(NC(=O)c6cnn7cccnc67)c(N6CCC(O)CC6)cc4O5)CC3)c21 (stereo partly drawn) [Compound 46] | – | – | – | – | – | – | –
